In patent US6492426B1, “Use of 1-aminoindan derivatives for treatment of mania in bipolar mood disorder” (priority 1999, dated 2002):
Where “and” joins values, the source holds several entries; their conditions need not be identical. Identical values can stand only once.

Test system: amphetamine-induced hyperactivity in rats
Test: amphetamine-induced hyperactivity model of mania in rats (automated activity monitors)
Type: in vivo, Sprague Dawley rats
Description: Evaluation of possible anti-bipolar effects of compounds 1 to 4 was effected by an amphetamine-induced hyperactivity model of mania in rats. Each of the compounds was examined in a separate experiment and compared with a control group, treated with the same dose of amphetamine.
Twenty Sprague Dawley rats, weighing 200-250 g served for each of the four (4) experiments. Rats were housed in a colony room with constant temperature (22° C.), 12 h light/dark cycle and free access to food and water. Each experiment consisted of two groups (n=10 per group), one group was treated with the compound (1 to 4) and the other with vehicle solution. In experiments 1-4, the drugs were administered intraperitoneally (IP). All experimental procedures were conducted during the light phase of the light/dark cycle.
Amphetamine (0.5 mg/kg, sub-cutaneous (s.c.), diluted in de-ionized water) was injected into all rats (both groups of each experiment) immediately prior to behavioral testing. In experiments 1 to 4, compounds (R)-N-acetyl aminoindan (1); (S)-N-indanyl glycinamide HCl (2); (rac)-N-(2-aminoacetyl)-1-aminoindan HCl (3); and (S)-N-formyl aminoindan (4) were injected twice intraperitoneally (IP) at a dose of 75 mg/kg, 19 h and 3 h prior to behavioral testing in experiments. All compounds were suspended in a 5% methyl cellulose solution. The vehicle solution was administered to the control animals.
Immediately after amphetamine injection, rats were placed in automated activity monitors and their activity levels were scored every 10 minutes in the 30 minute time span for experiments 1 to 4. Activity scores included separate measurements of horizontal (locomotion) and of vertical (rearing) activity.
Repeated ANOVA measurements were used to examine the effects of compounds 1 to 4 on locomotor and on vertical activity. One factor measured the treatment of the rats using compounds 1 to 4 or the control vehicle; the repeated measure factor was time (three 10 minute intervals). Post hoc LSD (least significant difference) tests were used to determine whether significant differences occurred in different time periods, where relevant.

[1] = group mean n=10, 75 mg/kg IP twice, amphetamine 0.5 mg/kg s.c., cumulative to 20 min
[2] = group mean n=10, 75 mg/kg IP twice, amphetamine 0.5 mg/kg s.c., cumulative to 30 min
[3] = group mean n=10, 75 mg/kg IP twice, amphetamine 0.5 mg/kg s.c., first 10 min
[4] = group mean n=10, 75 mg/kg IP twice, amphetamine 0.5 mg/kg s.c., second 10 min interval
[5] = group mean n=10, 75 mg/kg IP twice, amphetamine 0.5 mg/kg s.c., third 10 min interval
[6] = individual rat, 75 mg/kg IP twice, amphetamine 0.5 mg/kg s.c., cumulative to 20 min
[7] = individual rat, 75 mg/kg IP twice, amphetamine 0.5 mg/kg s.c., cumulative to 30 min
[8] = individual rat, 75 mg/kg IP twice, amphetamine 0.5 mg/kg s.c., non cumulative, second 10 min interval
[9] = individual rat, 75 mg/kg IP twice, amphetamine 0.5 mg/kg s.c., non cumulative, third 10 min interval

## O=CN[C@H]1CCc2ccccc21 [Compound 4, (S)-N-formyl aminoindan]
75 mg/kg IP, 19 h and 3 h before testing, result in words
  Effect on amphetamine-induced locomotor activity versus control (ANOVA): significantly reduced amphetamine-induced locomotor activity
75 mg/kg IP, amphetamine-treated rats, result in words
  Effect on activity levels of rats (summary): reduced the activity levels
Based on the tested model and doses, result in words
  Anti-manic potential from the tested model (conclusion): show anti-manic potential
[1]
  Locomotor activity, 20 min, mean: 1035 counts
  Vertical activity, 20 min, mean: 24 counts
[2]
  Locomotor activity, 30 min, mean: 1523 counts
  Vertical activity, 30 min, mean: 35 counts
[3]
  Locomotor activity, 10 min, mean: 553 counts
  Vertical activity, 10 min, mean: 17 counts
[4]
  Locomotor activity, 20-10 min, mean: 482 counts
  Vertical activity, 20-10 min, mean: 7 counts
[5]
  Locomotor activity, 30-20 min, mean: 488 counts
  Vertical activity, 30-20 min, mean: 11 counts
Individual rat, 75 mg/kg IP twice, 19 h and 3 h before testing, amphetamine 0.5 mg/kg s.c., first 10 min
  Locomotor activity, 10 min: 453 counts and 589 counts and 482 counts and 508 counts and 596 counts and 558 counts and 481 counts and 551 counts and 691 counts and 619 counts
[6]
  Locomotor activity, 20 min: 919 counts and 1099 counts and 896 counts and 840 counts and 1179 counts and 1113 counts and 923 counts and 988 counts and 1306 counts and 1088 counts
  Vertical activity, 20 min: 10 counts and 40 counts and 21 counts and 7 counts and 30 counts and 17 counts and 27 counts and 4 counts and 37 counts and 43 counts
[7]
  Locomotor activity, 30 min: 1371 counts and 1632 counts and 1253 counts and 1031 counts and 1789 counts and 1730 counts and 1422 counts (2×) and 2061 counts and 1519 counts
  Vertical activity, 30 min: 15 counts and 55 counts and 26 counts and 7 counts and 30 counts and 31 counts and 38 counts and 14 counts and 83 counts and 46 counts
Individual rat, 75 mg/kg IP twice, amphetamine 0.5 mg/kg s.c., first 10 min
  Vertical activity, 10 min: 9 counts and 30 counts (2×) and 13 counts and 7 counts and 12 counts (2×) and 21 counts and 3 counts and 34 counts
[8]
  Locomotor activity, 20-10 min: 466 counts and 510 counts and 414 counts and 332 counts and 583 counts and 555 counts and 442 counts and 437 counts and 615 counts and 469 counts
  Vertical activity, 20-10 min: 1 counts (2×) and 10 counts and 8 counts and 0 counts and 18 counts and 5 counts and 6 counts and 3 counts and 13 counts
[9]
  Locomotor activity, 30-20 min: 452 counts and 533 counts and 357 counts and 191 counts and 610 counts and 617 counts and 499 counts and 434 counts and 755 counts and 431 counts
  Vertical activity, 30-20 min: 5 counts (2×) and 15 counts and 0 counts (2×) and 14 counts and 11 counts and 10 counts and 46 counts and 3 counts
